In ChEMBL document CHEMBL4616657, “Aromatic Esters of the Crinane Amaryllidaceae Alkaloid Ambelline as Selective Inhibitors of Butyrylcholinesterase” (J Nat Prod, 2020):

Legend:
Cholinesterase [1] = molecular target: Cholinesterase (Equus caballus, UniProt P81908); test: Inhibition of horse serum BuChE using butyrylthiocholine chloride as substrate by spectrophotometric based Ellman's method
Cholinesterase [2] = molecular target: T1, Cholinesterase (Homo sapiens, UniProt P06276); test: Inhibition of human BuChE using butyrylthiocholine iodide as substrate measured for 1 min by spectrophotometric based Ellman's method
T1 sequence (P06276 whole entry): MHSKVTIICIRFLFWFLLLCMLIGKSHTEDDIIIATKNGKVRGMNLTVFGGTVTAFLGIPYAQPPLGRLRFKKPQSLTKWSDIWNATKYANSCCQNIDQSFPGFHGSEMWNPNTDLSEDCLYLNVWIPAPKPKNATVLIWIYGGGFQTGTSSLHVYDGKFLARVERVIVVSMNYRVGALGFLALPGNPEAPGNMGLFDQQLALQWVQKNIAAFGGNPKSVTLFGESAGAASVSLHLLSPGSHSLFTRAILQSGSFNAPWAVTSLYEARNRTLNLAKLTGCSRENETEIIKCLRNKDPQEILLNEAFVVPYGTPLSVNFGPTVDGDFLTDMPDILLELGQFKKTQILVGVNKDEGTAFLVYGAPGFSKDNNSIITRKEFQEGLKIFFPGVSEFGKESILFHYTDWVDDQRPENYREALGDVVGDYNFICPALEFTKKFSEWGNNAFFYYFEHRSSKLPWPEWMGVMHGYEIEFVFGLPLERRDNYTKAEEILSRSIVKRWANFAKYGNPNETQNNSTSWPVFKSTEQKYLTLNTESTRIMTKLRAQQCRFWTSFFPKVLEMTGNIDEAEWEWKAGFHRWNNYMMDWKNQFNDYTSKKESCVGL

Acetylcholinesterase [3] = molecular target: T2, Acetylcholinesterase (Homo sapiens, UniProt P22303); test: Inhibition of human AChE using acetylthiocholine iodide as substrate measured for 1 min by spectrophotometric based Ellman's method
T2 sequence (P22303 whole entry): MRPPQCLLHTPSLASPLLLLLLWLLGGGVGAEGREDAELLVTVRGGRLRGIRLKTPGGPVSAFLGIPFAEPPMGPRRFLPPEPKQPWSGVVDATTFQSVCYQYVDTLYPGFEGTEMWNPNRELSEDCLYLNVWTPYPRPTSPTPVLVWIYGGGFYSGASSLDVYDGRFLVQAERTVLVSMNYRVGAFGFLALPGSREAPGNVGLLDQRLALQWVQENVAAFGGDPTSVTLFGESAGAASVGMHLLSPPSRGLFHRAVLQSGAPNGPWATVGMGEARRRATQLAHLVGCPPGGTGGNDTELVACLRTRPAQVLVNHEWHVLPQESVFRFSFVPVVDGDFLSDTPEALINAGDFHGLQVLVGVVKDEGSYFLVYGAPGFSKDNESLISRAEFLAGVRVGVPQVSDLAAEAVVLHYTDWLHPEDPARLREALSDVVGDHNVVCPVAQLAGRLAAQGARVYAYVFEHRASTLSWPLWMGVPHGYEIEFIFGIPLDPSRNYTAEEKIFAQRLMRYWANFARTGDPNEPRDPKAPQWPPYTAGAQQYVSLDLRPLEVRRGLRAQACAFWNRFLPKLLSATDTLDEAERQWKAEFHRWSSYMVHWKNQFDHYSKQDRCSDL

[4] = Effective permeability of the compound at pH 7.4 at 100 uM measured after 3 to 6 hrs by PAMPA assay; format: ADME; conditions: read-out: Peff
Acetylcholinesterase [5] = molecular target: T2, Acetylcholinesterase; test: Inhibition of human AChE using acetylthiocholine iodide as substrate at 100 uM measured for 1 min by spectrophotometric based Ellman's method relative to control
Cholinesterase [6] = molecular target: T1, Cholinesterase; test: Inhibition of human BuChE using butyrylthiocholine iodide as substrate at 100 uM measured for 1 min by spectrophotometric based Ellman's method relative to control
Homo sapiens = organism: Homo sapiens; test: Selectivity index, ratio of IC50 for inhibition of human AChE using acetylthiocholine iodide as substrate to inhibition of human BuChE using butyrylthiocholine iodide as substrate

Sequence of Cholinesterase (Equus caballus, UniProt P81908) (P81908 whole entry): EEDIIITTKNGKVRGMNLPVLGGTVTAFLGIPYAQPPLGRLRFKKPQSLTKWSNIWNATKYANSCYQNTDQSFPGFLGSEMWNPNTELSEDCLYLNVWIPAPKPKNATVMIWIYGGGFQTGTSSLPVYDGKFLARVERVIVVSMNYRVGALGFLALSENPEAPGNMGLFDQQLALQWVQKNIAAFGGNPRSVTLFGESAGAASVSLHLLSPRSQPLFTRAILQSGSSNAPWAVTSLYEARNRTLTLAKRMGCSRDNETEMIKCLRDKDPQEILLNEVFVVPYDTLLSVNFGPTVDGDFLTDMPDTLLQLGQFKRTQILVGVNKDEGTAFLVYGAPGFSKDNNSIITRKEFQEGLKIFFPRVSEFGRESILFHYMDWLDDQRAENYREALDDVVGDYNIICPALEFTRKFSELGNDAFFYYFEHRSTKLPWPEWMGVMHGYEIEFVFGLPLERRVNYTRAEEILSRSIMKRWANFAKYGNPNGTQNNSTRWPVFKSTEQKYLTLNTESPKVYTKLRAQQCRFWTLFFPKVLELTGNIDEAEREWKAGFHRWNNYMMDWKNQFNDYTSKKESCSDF

Row | Compound | IC50 (Cholinesterase [1]) [µM] | IC50 (Cholinesterase [2]) [µM] | IC50 (Acetylcholinesterase [3]) [µM] | Papp at 100 µM [4] [×10⁻⁶ cm/s] | inhibition (Acetylcholinesterase [5]) [%] | inhibition (Cholinesterase [6]) [%] | Ratio IC50 (Homo sapiens)
1 | C[C@@H]([C@H]1[C@H](O)C[C@@]2(C)[C@@H]3CC[C@H]4C(C)(C)C(=O)C=C[C@@]45C[C@@]35CC[C@]12C)N(C)C | 1.1 |  |  |  |  |  | 
2 | COc1c2c(cc3c1OCO3)[C@]13C=C[C@H](OC)C[C@@H]1N(C2)C[C@H]3OC(=O)c1ccccc1 |  | 3.8 | > 100 | 12 |  |  | 
3 | CO[C@@H]1C=C[C@@]23c4cc5c(cc4CN(C[C@@H]2O)[C@H]3C1)OCO5 [(+)-HAEMANTHAMINE] |  | > 100 | > 100 |  | 6 | 13 | 
4 | COc1c2c(cc3c1OCO3)[C@]13C=C[C@H](OC)C[C@@H]1[N@](C2)C[C@H]3OC(=O)c1ccc([N+](=O)[O-])cc1 |  | > 100 | > 100 |  | 31 | 37 | 
5 | CCOc1cc(OCC)cc(C(=O)O[C@@H]2C[N@@]3Cc4c(cc5c(c4OC)OCO5)[C@@]24C=C[C@H](OC)C[C@H]34)c1 |  | > 100 | > 100 |  | 30 | 42 | 
6 | COc1c2c(cc3c1OCO3)[C@]13C=C[C@H](OC)C[C@@H]1[N@](C2)C[C@H]3OC(=O)c1ccccc1 |  |  |  |  | 25 | 97 | > 26
7 | COc1c2c(cc3c1OCO3)[C@]13C=C[C@H](OC)C[C@@H]1N(C2)C[C@H]3OC(=O)c1cccc2ccccc12 |  | 0.1 | > 100 | 9 |  |  | 
8 | COc1c2c(cc3c1OCO3)[C@]13C=C[C@H](OC)C[C@@H]1N(C2)C[C@H]3OC(=O)c1ccoc1 |  | 32 | > 100 |  |  |  | 
9 | COc1cccc(C(=O)O[C@@H]2CN3Cc4c(cc5c(c4OC)OCO5)[C@@]24C=C[C@H](OC)C[C@H]34)c1 |  | 6 | > 100 |  |  |  | 
10 | C[C@@H]([C@H]1CC[C@@]2(C)[C@@H]3CC[C@@H]4C(=CC3=CC[C@]12C)C=C[C@H](NC(=O)c1ccccc1)C4(C)C)N(C)C | 1.7 |  |  |  |  |  | 
11 | COc1ccc(C(=O)O[C@@H]2CN3Cc4c(cc5c(c4OC)OCO5)[C@@]24C=C[C@H](OC)C[C@H]34)cc1OC |  | > 100 | > 100 |  |  |  | 
12 | COc1c2c(cc3c1OCO3)[C@]13C=C[C@H](OC)C[C@@H]1[N@](C2)C[C@H]3OC(=O)c1ccoc1 |  |  |  |  | 12 | 61 | 1.9
13 | COc1c2c(cc3c1OCO3)[C@]13C=C[C@H](OC)C[C@@H]1N(C2)C[C@H]3OC(=O)c1cccc([N+](=O)[O-])c1 |  | 81 | 48 |  |  |  | 
14 | COc1ccc(C(=O)O[C@@H]2C[N@@]3Cc4c(cc5c(c4OC)OCO5)[C@@]24C=C[C@H](OC)C[C@H]34)cc1 |  | > 100 | > 100 |  | 26 | 32 | 
15 | COc1ccccc1C(=O)O[C@@H]1CN2Cc3c(cc4c(c3OC)OCO4)[C@@]13C=C[C@H](OC)C[C@H]23 |  | 0.43 | > 100 | 12 |  |  | 
16 | COc1c2c(cc3c1OCO3)[C@]13C=C[C@H](OC)C[C@@H]1[N@](C2)C[C@H]3OC(=O)c1ccc(C)cc1 |  |  |  |  | 28 | 68 | > 4
17 | COc1cccc(C(=O)O[C@@H]2C[N@@]3Cc4c(cc5c(c4OC)OCO5)[C@@]24C=C[C@H](OC)C[C@H]34)c1 |  |  |  |  | 25 | 91 | > 16
18 | COc1c2c(cc3c1OCO3)[C@]13C=C[C@H](OC)C[C@@H]1[N@](C2)C[C@H]3O |  | > 100 | > 100 |  | 4 | 8 | 
19 | COc1c2c(cc3c1OCO3)[C@]13C=C[C@H](OC)C[C@@H]1[N@](C2)C[C@H]3OC(=O)c1cccc(C)c1 |  |  |  |  | 41 | 98 | > 116
